Reference: patent publication US8287923B2, “Compositions and methods for treating immune disorders” (priority 2005, dated 2012)

Tested on: normal human epidermal keratinocytes (NHEK)
Assay: Affymetrix gene array analysis, autoantigen gene expression
Type: cell-based
Protocol: The gene array experiment was performed at the Core Facility of Genomics of the Medical College of Georgia, according to the instructions of the manufacturer (Affymetrix, Santa Clara, Calif.). Briefly, NHEK and OSC2 cells treated with 100 μM EGCG for different time period were extracted for total RNA, the RNA was processed for probes and hybridized with a cDNA microarray (HuG133A, Affymetrix) which represents 22,283 human series. DNA chips were read with a Hewlett-Packard GeneArray Scanner at a resolution of […] and were analyzed with the GeneSpring software (Silicon Genetics, Redwood City, Calif.). Details of this analysis will be published elsewhere (Hsu et al., manuscript in preparation).
Gene assays provide a valuable tool for studying the broad response of cells to agents, and we have used this approach to compare the differential effects of GTPP on gene expression in NHEK and human oral squamous carcinoma cells (Hsu, et al, manuscript in preparation). […] See also Hsu, S. et al. (2005) JPET 315:805-811, which is incorporated by reference in its entirety.

- RNA polymerase 1 (202692_s-at) expression, normalized (24 h, 100 μM): 0.55
- ADPRT [poly(ADP)-ribose polymerase] expression (24 h, 100 μM, vs time zero): 0.85 fold
- decrease in mRNA levels of RNA polymerase I, SS-B/La, alpha-fodrin and golgin-67 (rapid (0.5-2 hr initiation) and persistent during the 24 hr period): ≥ 2 fold
SMILES: O=C(O[C@@H]1Cc2c(O)cc(O)cc2O[C@@H]1c1cc(O)c(O)c(O)c1)c1cc(O)c(O)c(O)c1 [EGCG, (−)-epigallocatechin-3-gallate]
- Ku autoantigen, 80 kDa (208642_s_at) expression, normalized (24 h, 100 μM): 0.73
- Ku autoantigen, 80 kDa (208643_s_at) expression, normalized (24 h, 100 μM): 0.77
- Nuclear antigen SP100 (202863_at) expression, normalized (24 h, 100 μM): 0.36
- Nuclear antigen SP100 (202864_s_at) expression, normalized (24 h, 100 μM): 0.08
- Nuclear antigen SP10075 kDa (213226_at) expression, normalized (24 h, 100 μM): 0.50
- SS-B/La (201138_s_at) expression, normalized (24 h, 100 μM): 0.27
- SS-B/La (201139_s_at) expression, normalized (24 h, 100 μM): 0.26
- centromere protein C1 (20473_at) expression, normalized (24 h, 100 μM): 0.94
- coilin (203653_s_at) expression, normalized (24 h, 100 μM): 0.79
- coilin (203654_s_at) expression, normalized (24 h, 100 μM): 0.79
- fodrin-α (208611_s_at) expression, normalized (24 h, 100 μM): 0.42
- fodrin-α (215235_s_at) expression, normalized (24 h, 100 μM): 0.71
- golgin-67 (208797_s_at) expression, normalized (24 h, 100 μM): 0.29
- golgin-67 (208798_x_at) expression, normalized (24 h, 100 μM): 0.31
- golgin-67 (210425_x_at) expression, normalized (24 h, 100 μM): 0.31
- golgin-67 (213650_at) expression, normalized (24 h, 100 μM): 0.72
- scleroderma autoantigen 1, 75 kDa (213226_at) expression, normalized (24 h, 100 μM): 0.50
- spectrin-β non-erythrocyctic 1 (212071_s_at) expression, normalized (24 h, 100 μM): 0.72
- thyroid autoantigen 70 kDa (Ku antigen) (200792_at) expression, normalized (24 h, 100 μM): 0.79
- ANAP12 expression (24 h, 100 μM, vs time zero): 0.198 fold
- ANXA11 expression (24 h, 100 μM, vs time zero): 1.946 fold
- CALR expression (24 h, 100 μM, vs time zero): 1.528 fold
- CBARA1 expression (24 h, 100 μM, vs time zero): 0.721 fold
- CENPA expression (24 h, 100 μM, vs time zero): 0.673 fold
- CENPB expression (24 h, 100 μM, vs time zero): 0.721 fold
- CENPC1 expression (24 h, 100 μM, vs time zero): 0.936 fold
- CHD4 expression (24 h, 100 μM, vs time zero): 0.84 fold
- COL17A1 expression (24 h, 100 μM, vs time zero): 0.684 fold
- CTDSP1 expression (24 h, 100 μM, vs time zero): 1.39 fold
- CTDSP2 expression (24 h, 100 μM, vs time zero): 1.71 fold
- CTDSPL expression (24 h, 100 μM, vs time zero): 2.10 fold
- DLAT expression (24 h, 100 μM, vs time zero): 0.751 fold
- EPPK1 expression (24 h, 100 μM, vs time zero): 0.889 fold
- FBL expression (24 h, 100 μM, vs time zero): 0.69 fold
- FLJ31657 expression (24 h, 100 μM, vs time zero): 0.959 fold
- FLNB (Filamin B, β) expression (24 h, 100 μM, vs time zero): 0.249 fold
- FLNB (Filamin B, γ) expression (24 h, 100 μM, vs time zero): 0.243 fold
- G22P1 (Thyroid autoantigen, 70 kDa, Ku antigen) expression (24 h, 100 μM, vs time zero): 0.792 fold
- GMEB2 expression (24 h, 100 μM, vs time zero): 0.745 fold
- GOLGA1 expression (24 h, 100 μM, vs time zero): 0.9 fold
- GOLGA2 expression (24 h, 100 μM, vs time zero): 0.949 fold
- GOLGA3 expression (24 h, 100 μM, vs time zero): 0.419 fold
- GOLGA4 expression (24 h, 100 μM, vs time zero): 0.664 fold
- GOLGA5 expression (24 h, 100 μM, vs time zero): 1.494 fold
- GOLGB1 expression (24 h, 100 μM, vs time zero): 0.688 fold
- HARS expression (24 h, 100 μM, vs time zero): 0.72 fold
- HARSL expression (24 h, 100 μM, vs time zero): 1.00 fold
- HSA6591 expression (24 h, 100 μM, vs time zero): 0.562 fold
- HUMAUANTIG expression (24 h, 100 μM, vs time zero): 0.517 fold
- IMP-2 expression (24 h, 100 μM, vs time zero): 0.665 fold
- LAD1 expression (24 h, 100 μM, vs time zero): 0.553 fold
- LMO4 expression (repeat 1) (24 h, 100 μM, vs time zero): 1.011 fold
- LMO4 expression (repeat 2) (24 h, 100 μM, vs time zero): 0.659 fold
- MGC5560 expression (repeat 1) (24 h, 100 μM, vs time zero): 0.81 fold
- MGC5560 expression (repeat 2) (24 h, 100 μM, vs time zero): 0.552 fold
- NS (Nucleostemin) expression (24 h, 100 μM, vs time zero): 0.814 fold
- PDHB expression (24 h, 100 μM, vs time zero): 0.818 fold
- PDX1 expression (24 h, 100 μM, vs time zero): 0.903 fold
- PMSCL1, 75 kDa expression (24 h, 100 μM, vs time zero): 0.496 fold
- PMSCL2 expression (24 h, 100 μM, vs time zero): 0.717 fold
- POLR1B expression (24 h, 100 μM, vs time zero): 1.04 fold
- POLR1D expression (24 h, 100 μM, vs time zero): 1.31 fold
- POLR2A expression (repeat 1) (24 h, 100 μM, vs time zero): 1.02 fold
- POLR2A expression (repeat 2) (24 h, 100 μM, vs time zero): 1.17 fold
- POLR2B expression (24 h, 100 μM, vs time zero): 0.74 fold
- POLR2C expression (24 h, 100 μM, vs time zero): 1.66 fold
- POLR2D expression (24 h, 100 μM, vs time zero): 0.29 fold
- POLR2E expression (24 h, 100 μM, vs time zero): 0.39 fold
- POLR2F expression (24 h, 100 μM, vs time zero): 0.80 fold
- POLR2G expression (24 h, 100 μM, vs time zero): 0.89 fold
- POLR2H expression (24 h, 100 μM, vs time zero): 1.15 fold
- POLR3C expression (24 h, 100 μM, vs time zero): 0.49 fold
- POLR3G expression (24 h, 100 μM, vs time zero): 0.47 fold
- PSME3 expression (24 h, 100 μM, vs time zero): 0.421 fold
- RALY expression (24 h, 100 μM, vs time zero): 0.612 fold
- SART1 expression (24 h, 100 μM, vs time zero): 0.98 fold
- SLC25A16 expression (24 h, 100 μM, vs time zero): 1.144 fold
- SNRP70 expression (24 h, 100 μM, vs time zero): 0.51 fold
- SNRPA expression (24 h, 100 μM, vs time zero): 0.32 fold
- SNRPB2 expression (24 h, 100 μM, vs time zero): 0.82 fold
- SNRPB expression (repeat 1) (24 h, 100 μM, vs time zero): 0.52 fold
- SNRPB expression (repeat 2) (24 h, 100 μM, vs time zero): 0.42 fold
- SNRPC expression (24 h, 100 μM, vs time zero): 1.12 fold
- SNRPD1 expression (repeat 1) (24 h, 100 μM, vs time zero): 0.425 fold
- SNRPD1 expression (repeat 2) (24 h, 100 μM, vs time zero): 0.517 fold
- SOX13 expression (24 h, 100 μM, vs time zero): 1.582 fold
- SP100 expression (repeat 1) (24 h, 100 μM, vs time zero): 0.356 fold
- SP100 expression (repeat 2) (24 h, 100 μM, vs time zero): 0.079 fold
- SP110 expression (repeat 1) (24 h, 100 μM, vs time zero): 0.978 fold
- SP110 expression (repeat 2) (24 h, 100 μM, vs time zero): 0.654 fold
- SP110 expression (repeat 3) (24 h, 100 μM, vs time zero): 0.621 fold
- SPTAN1 (α-fodrin) expression (repeat 1) (24 h, 100 μM, vs time zero): 0.42 fold
- SPTAN1 (α-fodrin) expression (repeat 2) (24 h, 100 μM, vs time zero): 0.71 fold
- SPTBN expression (24 h, 100 μM, vs time zero): 0.72 fold
- SSA2 (autoantigen SS-A/Ro) expression (repeat 2) (24 h, 100 μM, vs time zero): 0.88 fold
- SSA2 expression (repeat 1) (24 h, 100 μM, vs time zero): 1.17 fold
- SSA2 expression (repeat 3) (24 h, 100 μM, vs time zero): 1.556 fold
- SSA2 expression (repeat 4) (24 h, 100 μM, vs time zero): 0.94 fold
- SSB (autoantigen La) expression (repeat 1) (24 h, 100 μM, vs time zero): 0.273 fold
- SSB (autoantigen La) expression (repeat 2) (24 h, 100 μM, vs time zero): 0.257 fold
- SSNA1 expression (24 h, 100 μM, vs time zero): 0.943 fold
- SSSCA1 expression (24 h, 100 μM, vs time zero): 1.228 fold
- STRN3 expression (24 h, 100 μM, vs time zero): 0.759 fold
- TOP1 expression (repeat 1) (24 h, 100 μM, vs time zero): 0.12 fold
- TOP1 expression (repeat 2) (24 h, 100 μM, vs time zero): 0.43 fold
- UBTF expression (24 h, 100 μM, vs time zero): 0.546 fold
- XRCC5 (Ku autoantigen, 80 kDa) expression (repeat 1) (24 h, 100 μM, vs time zero): 0.771 fold
- XRCC5 (Ku autoantigen, 80 kDa) expression (repeat 2) (24 h, 100 μM, vs time zero): 0.725 fold
- dJ963E22.1 expression (24 h, 100 μM, vs time zero): 0.88 fold
- α-NAC expression (24 h, 100 μM, vs time zero): 0.469 fold
- rapid initial increase of nuclear antigen SP100 and scleroderma autoantigen 1 mRNA (followed by a 2-fold or greater decrease): 2-4 fold
- 60 kDa SS-A/Ro mRNA level (time course up to 24 hr): did not decline significantly
